Experimental findings from patent US20260317299A1, “PIKFYVE PROTEIN KINASE DEGRADATION AGENT AND USE THEREOF” (Shanghai Institute of Organic Chemistry, Chinese Academy of …, priority 2023, published 2026) are described below.

Molecules are shown by their SMILES.

In the assay the target is T1, PIKfyve (Homo sapiens, UniProt Q9Y2I7).
T1 construct: endogenous in cells; host or cells: VCaP
The experiment in a line: Degradation of PIKfyve proteins in VCaP tumor cells (24 h, Western blot). The format is cell-based. The settings on record: 37° C., compared with DMSO control, WB, read-out: DC50 (concentration that achieves 50% degradation activity). A digest of the protocol: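 VCaP cells (5×10^6 cells/ml) treated with a range of compound concentrations at 37° C for 24 h, then lysed in SDS buffer. PIKfyve level measured by Western blot with GAPDH as loading control and ECL detection. DC50 is the concentration giving 50% degradation relative to DMSO control.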

T1 sequence (Q9Y2I7 whole entry): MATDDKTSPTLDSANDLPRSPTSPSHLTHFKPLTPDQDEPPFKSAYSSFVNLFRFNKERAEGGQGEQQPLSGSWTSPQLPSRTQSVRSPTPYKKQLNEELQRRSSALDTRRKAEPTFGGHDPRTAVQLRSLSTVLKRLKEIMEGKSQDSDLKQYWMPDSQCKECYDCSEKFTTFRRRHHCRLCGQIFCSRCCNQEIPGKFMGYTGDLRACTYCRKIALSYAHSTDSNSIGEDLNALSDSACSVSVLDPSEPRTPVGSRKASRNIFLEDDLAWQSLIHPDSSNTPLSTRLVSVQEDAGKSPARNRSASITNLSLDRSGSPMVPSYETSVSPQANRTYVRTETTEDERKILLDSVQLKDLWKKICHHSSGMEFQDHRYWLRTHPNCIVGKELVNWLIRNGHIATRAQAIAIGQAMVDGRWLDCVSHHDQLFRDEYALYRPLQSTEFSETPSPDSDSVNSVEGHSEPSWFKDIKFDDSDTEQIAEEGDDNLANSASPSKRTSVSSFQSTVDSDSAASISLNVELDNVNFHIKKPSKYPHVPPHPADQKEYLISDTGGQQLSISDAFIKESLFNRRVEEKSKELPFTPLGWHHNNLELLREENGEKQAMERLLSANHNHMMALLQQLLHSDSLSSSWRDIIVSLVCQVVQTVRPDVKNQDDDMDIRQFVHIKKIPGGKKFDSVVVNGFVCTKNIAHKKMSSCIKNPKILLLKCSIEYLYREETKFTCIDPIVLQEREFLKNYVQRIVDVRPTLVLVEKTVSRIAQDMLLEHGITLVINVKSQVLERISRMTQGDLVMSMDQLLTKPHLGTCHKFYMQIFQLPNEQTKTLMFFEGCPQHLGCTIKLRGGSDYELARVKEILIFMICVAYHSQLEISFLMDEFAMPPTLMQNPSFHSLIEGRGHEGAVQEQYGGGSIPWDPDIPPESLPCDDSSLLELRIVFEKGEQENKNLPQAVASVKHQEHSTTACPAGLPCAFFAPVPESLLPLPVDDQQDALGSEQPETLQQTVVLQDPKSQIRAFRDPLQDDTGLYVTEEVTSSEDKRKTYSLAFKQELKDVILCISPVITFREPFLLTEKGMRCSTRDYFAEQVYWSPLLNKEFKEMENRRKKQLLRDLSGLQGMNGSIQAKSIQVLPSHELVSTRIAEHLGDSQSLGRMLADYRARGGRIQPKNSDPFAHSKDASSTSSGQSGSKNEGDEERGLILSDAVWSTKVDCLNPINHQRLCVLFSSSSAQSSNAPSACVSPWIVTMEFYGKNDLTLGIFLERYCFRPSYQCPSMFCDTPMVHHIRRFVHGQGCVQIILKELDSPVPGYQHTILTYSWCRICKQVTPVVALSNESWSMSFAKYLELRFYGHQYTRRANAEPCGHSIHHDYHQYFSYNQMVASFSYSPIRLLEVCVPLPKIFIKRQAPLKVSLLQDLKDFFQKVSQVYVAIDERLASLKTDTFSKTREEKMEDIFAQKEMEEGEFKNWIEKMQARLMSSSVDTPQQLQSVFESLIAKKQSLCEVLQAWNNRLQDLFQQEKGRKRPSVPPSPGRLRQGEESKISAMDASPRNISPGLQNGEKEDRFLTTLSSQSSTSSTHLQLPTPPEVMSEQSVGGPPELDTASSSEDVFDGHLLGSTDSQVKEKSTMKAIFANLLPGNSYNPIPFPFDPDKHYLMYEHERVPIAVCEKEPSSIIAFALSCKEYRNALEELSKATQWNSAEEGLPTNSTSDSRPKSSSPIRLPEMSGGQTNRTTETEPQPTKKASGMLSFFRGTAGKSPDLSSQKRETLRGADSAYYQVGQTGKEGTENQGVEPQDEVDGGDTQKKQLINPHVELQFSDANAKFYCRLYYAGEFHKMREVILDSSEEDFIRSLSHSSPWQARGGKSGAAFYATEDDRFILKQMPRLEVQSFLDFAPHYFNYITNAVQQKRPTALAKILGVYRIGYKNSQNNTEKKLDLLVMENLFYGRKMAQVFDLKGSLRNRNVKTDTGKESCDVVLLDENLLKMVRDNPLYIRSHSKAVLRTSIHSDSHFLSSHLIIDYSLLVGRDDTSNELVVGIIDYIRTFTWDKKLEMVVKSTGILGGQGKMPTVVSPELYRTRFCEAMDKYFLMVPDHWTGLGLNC

Take `Cc1cccc(-c2ccn(-c3cc(N4CCOCC4)nc(OC4CCN(c5ccc(NC(=O)C[C@H](NC(=O)[C@@H]6C[C@@H](O)CN6C(=O)[C@@H](NC(=O)C6(F)CC6)C(C)(C)C)c6ccc(-c7scnc7C)cc6)cc5)CC4)n3)n2)c1` [Example 67, (2S,4R)-1-((S)-2-(1-fluorocyclopropane-1-carboxamido)-3,3-dimethylbutanoyl)-4-hydroxy-N—((S)-1-(4-(4-methylthiazol-5-yl)phenyl)-3-((4-(4-((4-morpholino-6-(3-(m-tolyl)-1H-pyrazol-1-yl)pyrimidin-2-yl)oxy)piperidin-1-yl)phenyl)amino)-3-oxopropyl)pyrrolidine-2-carboxamide]: the DC50 lay in the range of 1 to 100 nM.
In the case of `Cc1cccc(-c2ccn(-c3cc(N4CCOCC4)nc(OC4CCN(c5ccc(N6CCN(C(=O)CCCC[C@H](NC(=O)[C@@H]7C[C@@H](O)CN7C(=O)[C@@H](NC(=O)C7(F)CC7)C(C)(C)C)c7ccc(-c8scnc8C)cc7)CC6)cc5)CC4)n3)n2)c1` [Example 86, (2S,4R)-1-((S)-2-(1-fluorocyclopropane-1-carboxamido)-3,3-dimethylbutanoyl)-4-hydroxy-N—((S)-1-(4-(4-methylthiazol-5-yl)phenyl)-6-(4-(4-(4-((4-morpholino-6-(3-(m-tolyl)-1H-pyrazol-1-yl)pyrimidin-2-yl)oxy)piperidin-1-yl)phenyl)piperazin-1-yl)-6-oxohexyl) pyrrolidine-2-carboxamide] it was 1 to 100 nM.
